# US11180474B2 (BRISTOL-MYERS SQUIBB COMPANY, priority 2016, dated 2021)
# Biological target: T1, human TLR8 (Homo sapiens, UniProt Q9NR97)
# T1 construct: host or cells: HEK-Blue cells
# T1 sequence (Q9NR97 27-1041): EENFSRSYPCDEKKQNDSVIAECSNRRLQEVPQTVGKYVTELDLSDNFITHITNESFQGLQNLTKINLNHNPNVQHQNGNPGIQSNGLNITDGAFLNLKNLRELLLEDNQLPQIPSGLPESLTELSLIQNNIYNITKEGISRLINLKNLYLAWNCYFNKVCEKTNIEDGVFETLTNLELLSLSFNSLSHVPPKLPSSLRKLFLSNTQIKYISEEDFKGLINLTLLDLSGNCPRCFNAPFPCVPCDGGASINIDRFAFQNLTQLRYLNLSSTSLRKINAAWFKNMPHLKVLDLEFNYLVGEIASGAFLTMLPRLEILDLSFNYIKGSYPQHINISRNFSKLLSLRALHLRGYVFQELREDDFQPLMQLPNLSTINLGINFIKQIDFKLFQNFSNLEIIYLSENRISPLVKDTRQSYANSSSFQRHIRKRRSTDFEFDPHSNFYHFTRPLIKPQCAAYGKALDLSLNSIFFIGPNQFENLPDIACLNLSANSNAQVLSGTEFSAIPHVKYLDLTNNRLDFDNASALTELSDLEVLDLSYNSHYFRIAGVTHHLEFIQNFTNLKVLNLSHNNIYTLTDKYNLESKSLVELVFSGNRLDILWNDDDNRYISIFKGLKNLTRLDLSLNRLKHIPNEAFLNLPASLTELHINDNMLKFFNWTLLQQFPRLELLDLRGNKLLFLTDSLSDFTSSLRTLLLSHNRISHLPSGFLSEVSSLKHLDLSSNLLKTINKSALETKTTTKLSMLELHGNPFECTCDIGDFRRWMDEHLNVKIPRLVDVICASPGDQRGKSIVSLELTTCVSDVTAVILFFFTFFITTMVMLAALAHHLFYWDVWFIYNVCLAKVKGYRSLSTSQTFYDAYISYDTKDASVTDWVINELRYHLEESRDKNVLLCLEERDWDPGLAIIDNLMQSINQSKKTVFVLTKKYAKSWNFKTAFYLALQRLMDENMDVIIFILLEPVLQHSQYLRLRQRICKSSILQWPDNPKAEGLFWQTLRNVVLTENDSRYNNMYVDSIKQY
# Assay: TLR8 inhibition reporter assay (HEK-Blue cells, SEAP reporter, R848 stimulation)
# Format: cell-based
# Conditions: HEK-Blue cells overexpressing human TLR8, R848 15.9 μM
# How it was run: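 HEK-Blue reporter cells (15,000/well TLR7, 20,000 TLR8) exposed to compound over 0.05 nM–50 μM, agonist-stimulated (R848 for TLR8, gardiquimod for TLR7), 22 h at 37 °C, 5% CO2. SEAP read with HEK-Blue Detection; % inhibition relative to agonist-plus-DMSO and known-inhibitor controls.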
row,IC50 [µM],SMILES
1,0.11,"COc1ccc(-c2[nH]c3ccc(C4CCN(CC(=O)N(C)C)CC4)cc3c2CC(F)F)cc1OC [Example 400, 2-(4-(3-(2,2-difluoroethyl)-2-(3,4-dimethoxyphenyl)-1H-indol-5-yl)piperidin-1-yl)-N,N-dimethylacetamide]"
2,0.128,"CNC(=O)CN1CCC(c2ccc3[nH]c(-c4ccc(OC)c(OC)c4)c(CC(F)F)c3c2)CC1 [Example 401, 2-(4-(3-(2,2-difluoroethyl)-2-(3,4-dimethoxyphenyl)-1H-indol-5-yl)piperidin-1-yl)-N-methylacetamide]"
3,2.28,"COc1ccc(-c2[nH]c3ccc(C4CCN(C(=O)CN(C)C)CC4)cc3c2C)cc1OC [Example 402, 1-(4-(2-(3,4-dimethoxyphenyl)-3-methyl-1H-indol-5-yl)piperidin-1-yl)-2-(dimethylamino)ethan-1-one]"
4,3.75,"CCN(CC)C(=O)C1CCCN(CC(=O)N2CCC(c3ccc4[nH]c(-c5ccc(OC)c(OC)c5)c(C)c4c3)CC2)C1 (centres unmarked) [Example 404, 1-(2-(4-(2-(3,4-dimethoxyphenyl)-3-methyl-1H-indol-5-yl)piperidin-1-yl)-2-oxoethyl)-N,N-diethylpiperidine-3-carboxamide]"
5,29.2,"COc1ccc(-c2[nH]c3ccc(C4CCN(C(=O)CNC[C@@H](O)CO)CC4)cc3c2C)cc1OC [Example 405, (R)-2-((2,3-dihydroxypropyl)amino)-1-(4-(2-(3,4-dimethoxyphenyl)-3-methyl-1H-indol-5-yl)piperidin-1-yl)ethan-1-one]"
